Data published in EP0144519A1, “2',4'-Difluoro-4-hydroxy-(1,1'-diphenyl)-3-carboxylic derivatives of N-acetylcysteine and of S-carboxymethylcysteine having anti-inflammatory and mucolytic activity, process for their preparation and related pharmaceutical compositions” (priority 1983, dated 1985).
Structures can show the parent of a compound that is named as a salt.

Tests used:
[1] = system: carrageen induced paw oedema; assay: carrageen induced paw oedema in the rat (anti-inflammatory activity); type: in vivo; conditions: administered 1h before the carrageen, 10 animals
Excerpt: (§1) The pharmaco-toxicological properties of the compounds '1 have been studied in comparison with diflunisal and with N-acetylcysteine, in order to evaluate the pharmacological and toxicological properties of the compounds of the invention with respect to those of the starting compounds. The results relating to the compound 5 (see scheme I) are hereinafter reported, only for illustrative and not for limiting purpose.

[2] = system: phenylquinone induced writhing; assay: phenylquinone induced writhing in the mouse (analgesic activity); type: in vivo; conditions: 10 animals
Excerpt: as §1

[3] = system: sacrospinalis muscle; assay: histolesivity, intramuscular injection in the sacrospinalis muscle of rabbit; type: in vivo; conditions: equimolar doses
Excerpt: (§2) Other toxicological features of the compound 5 have been also studied, more particularly the histolesivity (intramuscular injection in the sacrospinalis muscle of rabbit) and the gastrolesivity (ulcers after oral administration in the rat).

[4] = system: ulcers; assay: gastrolesivity, ulcers after oral administration in the rat; type: in vivo; conditions: equimolar doses
Excerpt: as §2

[5] = plasma levels of diflunisal after oral administration in the rat (pharmacokinetics); type: in vivo; conditions: 40 umol/kg, oral dose 0.04 mmol/kg
Excerpt: Lastly, some pharmacokinetic properties of the compound 5 have been investigated, by measuring the plasma levels of diflunisal after oral administration of 0.04 mmol/kg p.o. in the rat, this dose being close to the therapeutical one. [table]

[6] = water solubility (observation at preparation); type: physicochemical
Description: 3.95 g of S-[2',4'-difluoro-4-hydroxy-(1,1'-diphenyl)-3-carbonyl]-N-acetyl-L-cysteine (5) are added with 2.92 g of lysine base as a 50% aqueous solution, 8 ml of water and 20 ml of acetone; the mixture is stirred until a clear solution is obtained and filtered. Under stirring the mixture is diluted up to 100 ml with acetone, cooled to -10°C for a night, filtered and dried in a stove at 50-60°C under vacuum. A white, water soluble product is obtained having melting point of 179-184°C, with a yield of 92%.

histolesivity [3] | Cmax [5] [ng/mL] | AUC(0-inf) ([5]; read-out: o → oo) [µg·h/mL] | Tmax ([5]; read-out: tC max) [h] | half-life ([5]; read-out: t½ (converted)) [min] | solubility in water [6] | Structure (SMILES) | INIBITION % (medium value ± s.e.) anti-inflammatory activity (a) ([1]; 0.040 mmol kg^-1 p.o.) [%] | INIBITION % (medium value ± s.e.) anti-inflammatory activity (a) ([1]; 0.120 mmol kg^-1 p.o.) [%] | INIBITION % (medium value ± s.e.) anti-inflammatory activity (a) ([1]; 0.400 mmol kg^-1 p.o.) [%] | INIBITION % (medium value ± s.e.) analgesic activity (b) ([2]; 0.040 mmol kg^-1 p.o.) [%] | INIBITION % (medium value ± s.e.) analgesic activity (b) ([2]; 0.120 mmol kg^-1 p.o.) [%] | INIBITION % (medium value ± s.e.) analgesic activity (b) ([2]; 0.400 mmol kg^-1 p.o.) [%] | gastrolesivity [4]
high | 39700 | 345 | 3 | 252 |  | O=C(O)c1cc(-c2ccc(F)cc2F)ccc1O [Diflunisal, 2',4'-difluoro-4-hydroxy-(1,1'-diphenyl)-3-carboxylic acid] | 29.6 ± 5.4 | 50.3 ± 2.0 | 53.9 ± 4.7 | 9.5 ± 6.2 | 16.6 ± 15.9 | 39.6 ± 9.8 | high
 |  |  |  |  | water soluble | CC(=O)N[C@@H](CSC(=O)c1cc(-c2ccc(F)cc2F)ccc1O)C(=O)O [Example 8, S-/ 2',4'-difluoro-4-hydroxy-(1,1'-diphenyl)-3-carbonyl]-N-acetyl-L-cysteine lysine salt] |  |  |  |  |  |  | 
